According to patent US9676774B2, “Compounds and compositions for treatment of cancer” (Sunesis Pharmaceuticals, Inc., priority 2006, dated 2017):

Legend:
[1] = test system: HCT-116 cells; assay: MTT cell viability (cytotoxicity) assay in HCT-116 cells; type: cell-based; conditions: Homo sapiens, 72 hours incubation, highest concentration 5 μM, read-out: IC50 (reduced cell viability)
Method: MTT Dye Solution: 5 mg/mL MTT dye (Sigma #M2128) in sterile PBS, filter sterilized, stored at 4° C. in a dark bottle no longer than 1 month.
Lysis Buffer: 50% N,N-dimethyl formamide (Aldich #31,993-7) in dH20, 20% w/v lauryl sulfate (added with stirring at 37° C.) (Sigma #L4509), adjusted pH to 4.7 with 2.5% of 80% acetic acid (Fisher #A490-212) and 2.5% 1 N HCl (Spectrum #HY105).
Supplemented RPMI media: 500 mL RPMI (Cellgro #10-040-CV), 10% FBS (Cellgro #35-011CV) and 1% Sodium Bicarbonate solution (Cellgro @35-035-CI), 1% Antibotic Solution (100× stock; Cellgro #30-004CI).
HCT-116 cells were purchased from ATTC (#CCL-247).
Background: No cells, Totals: Cells treated with DMSO only
96-well tissue culture-treated flat bottom plates (Costar #3595) were plated with 4000 trypsinized cells in 100 μL/well and incubated overnight. 100× stock concentrations of compounds were prepared in DMSO and serially diluted two-fold in DMSO in a 96-well polypropylene v-bottom plate (Costar #3363). 5 μL of DMSO dilutions were then added to 45 μL supplemented RPMI, and 10 μL/well of this mixture were added to plates containing HCT-116 cells. The highest concentration of compounds was 5 μM. Plates were incubated for 72 hours at 37° C. in an incubator (5% CO2).
After incubation, 20 μL of MTT solution were added to each well and incubated at 37° C. for 1.5 hour. 100 μL lysis buffer was then added and plates were incubated for 48 hours at 37° C. Cell viability was then recorded by absorbance at 595 nm using a Biorad Benchmark Microplate Reader. The fraction of dead cells was determined by Fraction of Dead cells=Absorbance of sample well−Avg(no cell control)/Avg(Absorbance of DMSO only Control)−Avg(no cell control).

[2] = In vitro reaction of SNS-595 with pooled human liver microsomes (product identification); type: in vitro ADME; conditions: for product formed from SNS-595 in liver microsomes: human liver microsomes 1 mg/mL, 10 or 100 μM SNS-595, 60 min, 37° C., NADPH
Method: The in vitro production of N-Desmethyl SNS-595 from SNS-595 was monitored as described herein. The pooled Human Liver Microsomes were obtained from BD Gentest and NADPH was obtained from Sigma.
The in vitro reactions were performed (a) in the presence of NADPH as a cofactor and (b) in the absence of NADPH to identify any SNS-595 derivatives generated by cofactor independent mechanisms.
The reaction mixture constituted 100 mM Sodium Phosphate buffer, pH 7.4, containing 3.3 mM MgCl2, 1 mg/mL liver microsomal protein, 10 or 100 μM SNS-595, and 1 mM NADPH for reaction with NADPH. In both the NADPH plus and minus reactions, SNS-595 was added to the reaction mixture and allowed to equilibrate to 37° C. for 10 minutes before starting the reaction by adding NADPH or an equivalent volume of buffer. Reactions were performed in a volume of 1 mL in 2 mL 96-well polypropylene assay blocks. The reaction was stopped by adding an equal volume of acetonitrile at both 0 and 60 minutes after initiating the reaction. Samples were placed on ice until centrifugation at 4100 g for 10 minutes to remove proteins for subsequent analysis.
SNS-595 and the reaction products were identified on an API 4000 mass spectrometer coupled to a turbo electro spray ionization source. Prior to MS analysis chromatography was performed to achieve separation of the reaction precuts (N-desmethyl-SNS-595 had the […] SNS-595). The HPLC system consisted of an Agilent 1100 binary pump and single wavelength UV/Vis as a detector, and a Phenomenex Synergi Hydro-RP column (150×2 mm, 4 micron, 80 Å particle size). Following column separation, UV spectra were collected at 350 nm before mass spectral analysis. Mass spectral identification of the reaction products was done using a series of three experiments; MS full scan, product ion scans on all reaction products identified in the MS full scan analysis as well as multiple reaction monitoring (MRM) or product ion scans on theoretically possible reaction products. […]

SMILES: CO[C@H]1CN(c2ccc3c(=O)c(C(=O)O)cn(-c4nccs4)c3n2)C[C@@H]1N [N-desmethyl-SNS-595, (+)-1,4-dihydro-7-[(3S,4S)-3-methoxy-4-amino-1-pyrrolidinyl]-4-oxo-1-(2-thiazolyl)-1,8-naphthyridine-3-carboxylic acid]
- IC50 [1]: 507 nM
- product formed from SNS-595 in liver microsomes [2]: predominant product formed
- product detectable after incubation of SNS-595 in liver microsomes ([2]; human liver microsomes, 10 μM incubation concentration of SNS-595): only product detectable

SMILES: CN[C@H]1CN(c2ccc3c(=O)c(C(=O)O)cn(-c4nccs4)c3n2)C[C@@H]1O [O-desmethyl-SNS-595, (+)-1,4-dihydro-7-[(3S,4S)-3-hydroxy-4-methylamino-1-pyrrolidinyl]-4-oxo-1-(2-thiazolyl)-1,8-naphthyridine-3-carboxylic acid]
- IC50 [1]: > 5000 nM
- product formed from SNS-595 in liver microsomes [2]: second product formed

SMILES: CN[C@H]1CN(c2ccc3c(=O)c(C(=O)O)cn(-c4nccs4)c3n2)C[C@@H]1OC [SNS-595, (+)-1,4-dihydro-7-[(3S,4S)-3-methoxy-4-(methylamino)-1-pyrrolidinyl]-4-oxo-1-(2-thiazolyl)-1,8-naphthyridine-3-carboxylic acid]
- IC50 [1]: 425 nM
